Test results as given in publication PMC5855801, “Benzothiophenone Derivatives Targeting Mutant Forms of Estrogen Receptor-α in Hormone-Resistant Breast Cancers” (International Journal of Molecular Sciences, 2018).

Assays:
[1] = molecular target: T1, progesterone receptor (PR) (Homo sapiens, UniProt P06401); assay: Luciferase reporter selectivity assay in PC3 cells, PR; type: cell-based; details: 24 h
T1 construct: expressed in transfected cells; host or cells: PC3
T1 sequence (P06401 1-933): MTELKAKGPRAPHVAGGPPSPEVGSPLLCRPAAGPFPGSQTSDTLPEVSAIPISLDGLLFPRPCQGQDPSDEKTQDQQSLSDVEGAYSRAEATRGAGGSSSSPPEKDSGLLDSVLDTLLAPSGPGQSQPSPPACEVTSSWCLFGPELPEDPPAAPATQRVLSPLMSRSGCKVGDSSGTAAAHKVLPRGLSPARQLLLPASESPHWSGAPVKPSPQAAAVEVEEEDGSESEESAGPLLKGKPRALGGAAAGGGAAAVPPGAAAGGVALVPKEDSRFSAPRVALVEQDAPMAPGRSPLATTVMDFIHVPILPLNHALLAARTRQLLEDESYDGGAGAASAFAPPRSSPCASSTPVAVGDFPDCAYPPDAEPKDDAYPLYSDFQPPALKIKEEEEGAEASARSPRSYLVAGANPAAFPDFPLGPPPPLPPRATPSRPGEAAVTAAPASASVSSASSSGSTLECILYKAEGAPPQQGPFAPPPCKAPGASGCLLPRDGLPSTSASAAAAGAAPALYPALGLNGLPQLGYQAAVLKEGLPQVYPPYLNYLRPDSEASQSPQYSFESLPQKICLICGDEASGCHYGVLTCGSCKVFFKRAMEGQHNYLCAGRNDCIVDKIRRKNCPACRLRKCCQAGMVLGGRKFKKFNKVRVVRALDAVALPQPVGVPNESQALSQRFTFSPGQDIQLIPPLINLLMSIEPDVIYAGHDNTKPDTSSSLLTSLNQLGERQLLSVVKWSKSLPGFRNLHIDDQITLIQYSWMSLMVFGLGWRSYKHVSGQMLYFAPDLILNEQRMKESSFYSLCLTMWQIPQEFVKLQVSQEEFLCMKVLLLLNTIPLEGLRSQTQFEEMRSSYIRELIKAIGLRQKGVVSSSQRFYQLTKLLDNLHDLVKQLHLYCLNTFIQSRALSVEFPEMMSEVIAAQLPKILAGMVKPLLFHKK
Protocol: Figure 4 Further activity profile of VPC-16606. (A,B) Chromatin immunoprecipitation (ChIP) analysis of ERα binding to the pS2 enhancer, or the GAPDH promoter, in MCF7 cells. Where indicated, ERα was stimulated with 1 nM E2 or dimethyl sulfoxide (DMSO) alone, and the compound was administered at a 6 μM concentration. Sheared chromatin-protein complexes were precipitated with the ERα antibody, reverse cross-linked and analyzed by quantitative PCR. The results are normalized as fold enrichment over precipitation with a rabbit isotype control IgG antibody for each condition tested. Error bars indicate standard error of the mean (SEM) for 3 independent experiments performed in triplicates. Fold enrichment from the compound tested condition (ERα antibody) was statistically compared against DMSO + E2 with a two-tailed t-test (unpaired) *** indicates p-value <0.001. (C) Specificity of VPC-16606 was evaluated in the luciferase reporter assay. PC3 cells were transfected with plasmids expressing androgen receptor (AR), progesterone receptor (PR) or glucocorticoid receptor (GR) along with their responsive luciferase reporter constructs bearing androgen response element (ARE), progesterone response element (PRE) or glucocorticoid response element (GRE), respectively. […] Y-axis represents relative luminescence (RLU) after normalizing to constitutive renilla reporter. […]

ERα LBD = molecular target: T2, ERα LBD (Homo sapiens, UniProt P03372); assay: Biolayer interferometry (BLI) direct binding assay; details: biotinylated ERα LBD on streptavidin sensor, 3–100 μM
T2 construct: ERα LBD (amino acids 302–552) was cloned into the pAN4 AviTag™ Vector; made in house
T2 sequence (P03372 302-552): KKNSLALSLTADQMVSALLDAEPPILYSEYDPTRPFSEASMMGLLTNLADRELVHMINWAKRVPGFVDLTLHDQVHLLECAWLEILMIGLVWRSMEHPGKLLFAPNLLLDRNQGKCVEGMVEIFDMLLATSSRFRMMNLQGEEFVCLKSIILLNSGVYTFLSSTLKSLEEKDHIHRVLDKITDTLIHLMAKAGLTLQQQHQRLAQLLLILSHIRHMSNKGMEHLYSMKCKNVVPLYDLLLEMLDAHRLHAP
Protocol: The direct binding of small molecules to the ERα-LBD was quantified by BLI using an Octet RED apparatus (Pall ForteBio, Menlo Park, CA, USA). ERα LBD (amino acids 302–552) was cloned into the pAN4 AviTag™ Vector, (Avidity, Aurora, CO, USA). Biotinylated ERα-LBD was purified as described previously. Biotinylated protein (bERα LBD at 0.05 mg/mL) was bound to the super streptavidin sensors (Pall ForteBio) overnight at 4 °C in assay buffer (20 mM Tris, pH 7.5, 500 mM NaCl, 0.2 mM tris(2-carboxyethyl)phosphine TCEP, 0.02 mM E2, 5% glycerol and 5% dimethyl sulfoxide (DMSO). The compounds were dissolved in the assay buffer in a two-fold dilution series ranging from 3.1–100 μM. In all experiments, a known AF2-interacting peptide, PGC-1α (Elim Biopharmaceuticals, Hayward, CA, USA) was used as a control to confirm the functionality of the bERα LBD.

CC(=O)N(/N=C1\Sc2c(C)cccc2C1=O)c1ccccc1Cl [VPC-16606]
Effect on PR activity (luciferase) ([1]; 50 µM): some effect | Effect on PR activity (luciferase) ([1]; doses up to 25 µM): does not affect the activity | Direct binding to ERα LBD (BLI) (ERα LBD): direct reversible interaction
